Experimental data from patent US20070093465A1, “Cephem compound” (priority 2003, published 2007).
Converted amounts (≈) assume the structure as drawn.

How the values were obtained:
Assay in all cases: Bioactivity: growth inhibition / minimal inhibitory concentration in liquid culture
Format in all cases: cell-based
[1] = test system: Bacillus subtilis ATCC 6633; conditions: ATCC6633, 48 h, B. subtilis ATCC 6633, liquid 2x TY, microtiterplates incubated 2 days at 25 degrees Celsius, 550 rpm
Excerpt: (§1) The adipoyl-7-amino-3-carbamoyloxymethyl-3-cephem-4-carboxylic acid prepared according to Example 3 was used to evaluate its activity versus different bacteria. Bacteria used were: Escherichia coli ESS [xxxref komt nogxx], Micrococcus luteus DSM 348 [Andrade, A. C., Van Nistelrooy, J. G. M., Peery, R. B., Skatrud, P. L., De Waard, M. A., 2000, The role of ABC transporters from Aspergillus nidulans in protection against cytotoxic agents and in antibiotic production] and Bacillus subtilis ATCC 6633 [xxxref komt nogxx] The bacteria were grown overnight in liquid 2× TY [xxxref komt nogxx] at 37 degrees and 280 rotations per minute and subsequently diluted 1000-fold in fresh medium. Two ml deep-well microtiterplates were inoculated with 1 ml of the diluted bacterial cultures and different concentrations of adipoyl-7-amino-3-carbamoyloxymethyl-3-cephem-4-carboxylic acid (adipoyl-ACCA or Ad-ACCA) were added to individual wells wells. As control several other active and less-active b-lactams were used: 6-APA, Adipoyl-6-APA, 7-ADCA, adipoyl-7-ADCA, 7-ACA, cephalosporinC and cefuroxime. The microtiterplates were incubated for 2 days at 25 degrees Celsius and 550 rotations per minute.
(§2) The results for growth inhibition by adipoyl-7-ADCA, adipoyl-ACCA and cefuroxime are summarized in FIGS. 14 (B. subtilis), 15 (E. coli) and 16 (M. luteus).
(§3) The minimal inhibitory concentrations of adipoyl-7-amino-3-carbamoyloxymethyl-3-cephem-4-carboxylic acid for B. subtilis ATCC 6633, E. coli ESS and M. luteus DSM 348 were 4, 7 and 7 uM, respectively.

Escherichia coli ESS = conditions: 48 h, E. coli ESS, liquid 2x TY, microtiterplates incubated 2 days at 25 degrees Celsius, 550 rpm
Excerpt: as §1, §2, §3

[2] = test system: Micrococcus luteus DSM 348; conditions: DSM348, 48 h, M. luteus DSM 348, liquid 2x TY, microtiterplates incubated 2 days at 25 degrees Celsius, 550 rpm
Excerpt: as §1, §2, §3

SMILES: NC(=O)OCC1=C(C(=O)O)N2C(=O)[C@@H](NC(=O)CCCCC(=O)O)[C@H]2SC1 [adipoyl-7-amino-3-carbamoyloxymethyl-3-cephem-4-carboxylic acid]
- MIC [1]: 4 µM (≈ 1.61 µg/mL)
- MIC (Escherichia coli ESS): 7 µM (≈ 2.81 µg/mL)
- MIC [2]: 7 µM (≈ 2.81 µg/mL)
